{"source": "paper PMC11942905", "about": "“Identification of a Selective Inhibitor of Human NFS1, a Cysteine Desulfurase Involved in Fe-S Cluster Assembly, via Structure-Based Virtual Screening” (International Journal of Molecular Sciences, 2025)", "key": {"[1]": {"tested_on": "succinate dehydrogenase (SDH)", "assay": "Succinate dehydrogenase activity in A549 cells", "format": "cell-based, human", "details": "50 µM", "method": "(§1) The activity of succinate dehydrogenase (SDH) in cells was determined using an SDH activity assay kit (Solarbio, Beijing, China) according to the manufacturer’s instructions. The optical density at 600 nm (OD600) was measured using a multifunctional microplate reader in 96-well plates. One unit of SDH activity was defined as the amount of enzyme catalyzing the consumption of 1 nmol of 2,6-dichlorophenol indophenol per minute at 37 °C [43]. The activity of aconitase (ACO) was measured as previously described, with some modifications. The cells were washed three times with pre-cooled PBS and lysed with lysis buffer containing 50 mM of Tris-HCl (pH 8.0), 0.2% Triton X-100, 0.6 mM of MnCl2, 5 mM of citrate, and 1 mM of PMSF. The aconitase activity was measured by monitoring the formation of cis-aconitate from isocitrate at 240 nm in 50 mM of Tris-HCl (pH 8.0) containing 20 mM of DL-trisodium isocitrate at 37 °C. An extinction coefficient of 3600 M^−1 cm^−1 at 240 nm was used to calculate the cis-aconitate concentration. One unit of ACO activity was defined as the amount of enzyme catalyzing the generation of 1 nmol of cis-aconitate per minute at 37 °C."}, "aconitase (ACO)": {"tested_on": "aconitase (ACO)", "assay": "Aconitase activity in A549 cells", "format": "cell-based, human", "details": "50 µM", "method": "as §1"}, "A549 cells [2]": {"tested_on": "A549 cells", "assay": "Endogenous ROS levels, DCFH-DA fluorescence", "format": "cell-based, human", "details": "48 h, Compound 53 50 µM, Erastin 2.5 µM, 2-AAPA 20 µM", "method": "Endogenous ROS levels in A549 cells were detected using the fluorescent dye DCFH-DA [48, 49]. A549 cells were cultured in DMEM supplemented with 10% fetal bovine serum at 37 °C in a humidified atmosphere containing 5% CO2. […] Subsequently, the cells were washed three times with prewarmed PBS, and fresh medium containing 10 μM of DCFH-DA was added. After 30 min of incubation, the cells were washed again with prewarmed PBS, fresh medium was added, and the cells were imaged using an inverted fluorescence microscope (Leica, Wetzlar, Germany). Images of live cells were acquired in six different fields. ImageJ software was used to analyze the images."}, "NFS1 E387A": {"molecular_target": "T1, NFS1 E387A (Homo sapiens, UniProt Q9Y697, E387A)", "T1 construct": "His tag (N); made in house; host or cells: E. coli BL21(DE3)", "T1 sequence (Q9Y697 56-457 E387A)": "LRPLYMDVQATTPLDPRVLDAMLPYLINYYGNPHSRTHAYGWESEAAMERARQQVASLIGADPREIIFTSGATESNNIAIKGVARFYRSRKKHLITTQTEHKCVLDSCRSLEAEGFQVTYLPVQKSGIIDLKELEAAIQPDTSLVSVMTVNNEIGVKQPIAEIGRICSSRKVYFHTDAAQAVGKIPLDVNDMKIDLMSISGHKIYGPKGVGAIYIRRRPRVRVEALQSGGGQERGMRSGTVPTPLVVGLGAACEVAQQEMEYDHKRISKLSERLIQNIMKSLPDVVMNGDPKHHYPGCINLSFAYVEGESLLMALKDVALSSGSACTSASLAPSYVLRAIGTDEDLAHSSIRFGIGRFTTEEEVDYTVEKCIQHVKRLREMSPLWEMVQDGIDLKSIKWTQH", "assay": "H2S-producing assay, NFS1 E387A mutant", "format": "biochemical", "method": "To further validate the accuracy of the simulated results, the residues Cys158, Glu387, Lys157, and His156 were mutated to alanine using site-directed mutagenesis.\nFor the expression and purification of NFS1Δ1-55/ISD11 in E. coli, the plasmid pNFS1-ISD11 was transformed into BL21(DE3) cells. The cells were grown at 37 °C in 1 L cultures of LB medium containing chloramphenicol (50 μg/ml) until the optical density at 600 nm (OD600) reached 0.6–0.8. Protein expression was induced by adding 0.1 mM isopropyl β-D-1-thiogalactopyranoside (IPTG), followed by an additional 12 h of incubation at 25 °C. The cells were harvested by centrifugation at 8000 rpm for 10 min at 4 °C, then resuspended in lysis buffer containing 50 mM phosphate-buffered saline (PBS, pH 7.4), 500 mM NaCl, 100 mg/L lysozyme, 30 mM imidazole, and 1 mM phenylmethanesulfonyl fluoride (PMSF). The resuspended cells were incubated on ice for 1 h, followed by sonication using an Ultrasonic Cell Disruption System (Scientz, Ningbo, China). The supernatant was obtained by centrifugation at 12,000 rpm for 30 min at 4 °C and was loaded onto a HisTrap FF column (GE Healthcare, Chicago, MA, USA) pre-equilibrated with lysis buffer. […] The protein concentration was measured using a BCA protein assay reagent kit (TransGen Biotech, Beijing, China)."}, "A549 cells [3]": {"tested_on": "A549 cells", "assay": "Lipid peroxide (LPO) content", "format": "cell-based, human", "details": "48 h, Erastin 2.5 µM, Compound 53 50 µM, 2-AAPA 20 µM, alone or combined", "method": "A549 cells were seeded in 10 cm dishes at a density of 2 × 10^6 cells per dish and cultured until they reached 40–60% confluence. […] Lipid peroxidation (LPO) levels were measured using a Lipid Peroxide (LPO) Content Assay Kit (Solarbio, China) following the manufacturer’s instructions."}}}
{"compound": "COc1cc(/C=N/NC(=O)COc2ccc(Cl)cc2Cl)ccc1O", "note": "[Compound 53]", "values": [{"measurement": "SDH activity compared to the control group", "setting": "[1]", "value": 81.8, "unit": "%"}, {"measurement": "ACO activity compared to the control group", "setting": "aconitase (ACO)", "value": 51.3, "unit": "%"}, {"measurement": "intracellular ROS levels", "setting": "A549 cells [2]", "value": "did not significantly affect intracellular ROS levels"}, {"measurement": "IC50", "setting": "NFS1 E387A", "value": "105 ± 3.17", "unit": "µM"}, {"measurement": "intracellular lipid peroxide (LPO) levels", "setting": "A549 cells [3]", "value": "no significant changes"}]}
